The values that follow are results of earlier work, collected in patent US20060111369A1, “Synthesis, characterization and biological action of optically active isomers of floxacins” (priority 2004, published 2006).

For data set [1] the following is noted: effects on the CNS.
Data set [2] addresses IKr potassium current channel (Homo sapiens, UniProt Q12809).
For data set [3] the following is noted: according to the FDA.
The test system of data set [4] is gram-negative and gram-positive bacteria. To be noted: against both gram-negative and gram-positive bacteria.

Chain of IKr potassium current channel (Q12809 whole entry): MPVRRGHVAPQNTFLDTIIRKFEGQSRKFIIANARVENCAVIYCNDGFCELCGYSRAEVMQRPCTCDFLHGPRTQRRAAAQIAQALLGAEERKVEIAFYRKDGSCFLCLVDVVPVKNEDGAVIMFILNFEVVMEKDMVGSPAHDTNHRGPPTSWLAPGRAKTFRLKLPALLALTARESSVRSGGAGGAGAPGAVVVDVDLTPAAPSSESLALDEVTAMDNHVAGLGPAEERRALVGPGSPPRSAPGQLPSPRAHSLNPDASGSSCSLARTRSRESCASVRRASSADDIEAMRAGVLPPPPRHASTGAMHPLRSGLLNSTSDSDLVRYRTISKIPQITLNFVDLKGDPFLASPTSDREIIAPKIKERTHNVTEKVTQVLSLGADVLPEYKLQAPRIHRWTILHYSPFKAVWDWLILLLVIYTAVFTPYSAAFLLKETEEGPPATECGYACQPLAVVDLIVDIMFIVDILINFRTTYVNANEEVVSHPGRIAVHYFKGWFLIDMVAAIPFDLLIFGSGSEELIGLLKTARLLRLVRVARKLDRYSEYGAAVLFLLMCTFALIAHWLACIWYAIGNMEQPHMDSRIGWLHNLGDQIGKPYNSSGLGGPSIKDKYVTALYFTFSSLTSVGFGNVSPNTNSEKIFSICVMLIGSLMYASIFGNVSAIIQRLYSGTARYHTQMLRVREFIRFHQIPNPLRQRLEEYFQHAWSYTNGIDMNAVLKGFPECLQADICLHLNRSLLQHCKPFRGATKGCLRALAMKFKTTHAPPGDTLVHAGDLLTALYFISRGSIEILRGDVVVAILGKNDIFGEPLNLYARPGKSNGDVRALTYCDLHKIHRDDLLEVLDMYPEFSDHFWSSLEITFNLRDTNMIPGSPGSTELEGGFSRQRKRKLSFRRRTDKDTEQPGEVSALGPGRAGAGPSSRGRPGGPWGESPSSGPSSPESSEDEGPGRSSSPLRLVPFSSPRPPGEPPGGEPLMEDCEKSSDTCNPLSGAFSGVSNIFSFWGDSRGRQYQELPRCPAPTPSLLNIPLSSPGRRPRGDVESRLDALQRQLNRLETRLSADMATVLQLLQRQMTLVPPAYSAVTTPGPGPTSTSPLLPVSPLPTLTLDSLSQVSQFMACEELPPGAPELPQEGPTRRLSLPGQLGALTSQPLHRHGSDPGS

Regarding `COc1cc(N)c(Cl)cc1C(=O)NC1CCN(CCCOc2ccc(F)cc2)CC1OC` (centres unmarked) [cisapride], the “effect on QT interval (in words)” value (human, in vivo) is “causes QT prolongation and arrhythmias”.

`CC(N)Cc1ccccc1` (centres unmarked) [AP, amphetamine]: the “activity of S-isomer relative to R-isomer” value in data set [1] is given as “approximately five”.

As for `Cc1c(F)c(N2CCNC(C)C2)cc2c1c(=O)c(C(=O)O)cn2C1CC1` (centres unmarked) [grepafloxacin], under “clinical trials”, the “cardiac adverse events in clinical trials (in words)” value was “Heart-rhythm abnormalities were observed in some patients”. Further, the “effect on QT interval (in words)” value (human, in vivo) is recorded as “prolong the QT interval”.

As for `COc1cc(N)c(Cl)cc1C(=O)NC1CCNCC1OC` (centres unmarked) [Norcisapride], the “effect on QT interval (in words)” value (human, in vivo) is reported as “does not”.

Regarding `C[C@H]1COc2c(N3CCN(C)CC3)c(F)cc3c(=O)c(C(=O)O)cn1c23` [levofloxacin], the “effect on QT interval (in words)” value (human, in vivo) was “prolong the QT interval”.

For the molecule `COc1c(N2C[C@@H]3CCCN[C@@H]3C2)c(F)cc2c(=O)c(C(=O)O)cn(C3CC3)c12` [moxifloxacin], where the note is “human, in vivo”, the “mean QT prolongation” value was 6 ms and the “outliners (QT prolongation)” value is listed as 38. Besides, the IKr blocker strength result in data set [2] is “weak”.

With `C[C@@H]1CN(c2c(F)c(N)c3c(=O)c(C(=O)O)cn(C4CC4)c3c2F)C[C@H](C)N1` [sparfloxacin], where the note is “human, in vivo”, the “effect on QT interval (in words)” value was “prolong the QT interval”. For the same molecule, in data set [3], the “cardiac events per 10,000 prescriptions” value was 145 per 10,000 prescriptions.

As for `COc1c(N2CCNC(C)C2)c(F)cc2c(=O)c(C(=O)O)cn(C3CC3)c12` (centres unmarked) [gatifloxacin], the “effect on QT interval (in words)” value (human, in vivo) is listed as “prolong the QT interval”.

Regarding `CN[C@@H](C)Cc1ccccc1` [MAP, methamphetamine], in data set [1], the “activity of S-isomer relative to R-isomer” value is “approximately five”.

As to `CC1COc2c(N3CCN(C)CC3)c(F)cc3c(=O)c(C(=O)O)cn1c23` (single isomer, unassigned; (-)) [(−)-Ofloxacin], in data set [4], the “activity relative to the racemate” value is listed as 8-128 times.
